Results as given in patent US6703407B1, “Benzofuran compounds, compositions, and methods” (Eli Lilly and Company, priority 1994, dated 2004).

What was measured:
Format in all cases: in vivo, Sprague Dawley rats
[1] = system: ovariectomized rats; experiment: Serum cholesterol in ovariectomized rat post-menopausal model (4-day dosing); conditions: oral daily for 4 days
Procedure: (§1) In the examples illustrating the methods, a post-menopausal model was used in which effects of different treatments upon circulating lipids were determined.
(§2) Seventy-five day old female Sprague Dawley rats (weight range of 200 to 225 g) were obtained from Charles River Laboratories (Portage, Mich.). The animals were either bilaterally ovariectomized (OVX) or exposed to a Sham surgical procedure at Charles River Laboratories, and then shipped after one week. Upon arrival, they were housed in metal hanging cages in groups of 3 or 4 per cage and had ad libitum access to food (calcium content approximately 0.5%) and water for one week. Room temperature was maintained at 22.20±1.7° C. with a minimum relative humidity of 40%. The photoperiod in the room was 12 hours light and 12 hours dark.
(§3) Dosing Regimen Tissue Collection. After a one week acclimation period (therefore, two weeks post-OVX) daily dosing with test compound was initiated. 17α-ethynyl estradiol or the test compound were given orally, unless otherwise stated, as a suspension in 1% carboxymethylcellulose or dissolved in 20% cyclodextrin. Animals were dosed daily for 4 days. Following the dosing regimen, animals were weighed and anesthetized with a ketamine: Xylazine (2:1, V:V) mixture and a blood sample was collected by cardiac puncture. The animals were then sacrificed by asphyxiation with CO2, the uterus was removed through a midline incision, and a wet uterine weight was determined.
Cholesterol Analysis. Blood samples were allowed to clot at room temperature for 2 hours, and serum was obtained following centrifugation for 10 minutes at 3000 rpm. Serum cholesterol was determined using a Boehringer Mannheim Diagnostics high performance cholesterol assay. Briefly the cholesterol was oxidized to cholest-4-en-3-one and hydrogen peroxide. The hydrogen peroxide was then reacted with phenol and 4-aminophenazone in the presence of peroxidase to produce a p-quinone imine dye, which was read spectrophotemetrically at 500 nm. Cholesterol concentration was then calculated against a standard curve. The entire assay was automated using a Biomek Automated Workstation.

[2] = system: Uterine Eosinophil Peroxidase (EPO); experiment: Uterine Eosinophil Peroxidase (EPO) Assay; conditions: for Uterine EPO (V. max): OVX rats, oral daily for 4 days
Source text: as §2, §3
Uterine Eosinophil Peroxidase (EPO) Assay. Uteri were kept at 4° C. until time of enzymatic analysis. The uteri were then homogenized in 50 volumes of 50 mM Tris buffer (pH−8.0) containing 0.005% Triton X-100. Upon addition of 0.01% hydrogen peroxide and 10 mM o-phenylenediamine (final concentrations) in Tris buffer, increase in absorbance was monitored for one minute at 450 nm. The presence of eosonophils in the uterus is an indication of estrogenic activity of a compound. The maximal velocity of a 15 second interval was determined over the initial, linear portion of the reaction curve.

[3] = system: ovariectomized rats; experiment: Uterine weight in ovariectomized rat post-menopausal model (4-day dosing); conditions: for Uterine Weight (% increase vs. OVX): OVX rats, oral daily for 4 days
Procedure: as §1, §2, §3

| Uterine EPO (V. max) ([2]; dose 0.1 mg/kg) | Uterine Weight (% increase vs. OVX) ([3]; dose 0.1 mg/kg) | Uterine EPO (V. max) ([2]; dose 1.0 mg/kg) | Uterine EPO (V. max) ([2]; dose 10.0 mg/kg) | Uterine Weight (% increase vs. OVX) ([3]; dose 1.0 mg/kg) | Uterine Weight (% increase vs. OVX) ([3]; dose 10.0 mg/kg) | SMILES | Serum Cholesterol (% decrease vs. OVX) ([1]; dose 0.1 mg/kg) | eosinophil infiltration into the uterus (number of eosinophils in the stromal layer, in words) ([2]; ovariectomized rats) | uterine weight vs. ovariectomized test animals (in words) ([3]; orally administered at 0.1 mg/Kg/day) | Serum Cholesterol (% decrease vs. OVX) ([1]; dose 1.0 mg/kg) | Serum Cholesterol (% decrease vs. OVX) ([1]; dose 10.0 mg/kg) |
| --- | --- | --- | --- | --- | --- | --- | --- | --- | --- | --- | --- |
| 201.9 V. max | 172.8 % increase vs. OVX | – | – | – | – | C#C[C@]1(O)CC[C@H]2[C@@H]3CCc4cc(O)ccc4[C@H]3CC[C@@]21C [EE2, 17α-ethynyl estradiol, reference compound] | 92.6 % decrease vs. OVX | substantial, expected increase in eosinophil infiltration | substantially greater than the uterine weight of ovariectomized test animals | – | – |
| 4.7 V. max | 8.6 % increase vs. OVX | 5.8 V. max | 11.3 V. max | 26.3 % increase vs. OVX | 30.1 % increase vs. OVX | Cl.Oc1ccc(-c2oc3cc(O)ccc3c2Cc2ccc(OCCN3CCCCC3)cc2)cc1 [Ex-3, [2-(4-Hydroxyphenyl)-6-hydroxybenzofuran-3-yl][4-[2-(1-piperidinyl)ethoxy]phenyl]methane Hydrochloride] | 38.9 % decrease vs. OVX | – | – | 53.0 % decrease vs. OVX | 73.3 % decrease vs. OVX |
